Values quoted from earlier work, collected in US11883631B2 (priority 2015, dated 2024).

What was measured:
[1] = in vivo
[2] = EEG monitor effect site; 18-60 yr
[3] = in vivo; remark: listed apart in the source
[4] = 10 mg/s vs 2 mg/s

CC(C)c1cccc(C(C)C)c1O [propofol]
effect-site concentration at burst suppression onset [1]: higher than 8 μg/ml
ke0 [2]: 0.456 min⁻¹
Reductions in systolic blood pressure (SBP) (during induction of anesthesia with propofol): greater than 25%
plasma concentration at which propofol may significantly decrease SBP (patients aged 20-85 yr, effect more evident in elderly (>70 yr)): > 10000 ng/mL
Propofol concentration associated with awakening from anesthesia [3]: < 1.8 µg/mL
drop in mean arterial pressure, higher vs lower infusion rate [4]: larger drop in mean arterial pressure
